Data published in article PMC6471485, “Selective Inhibitors of a Human Prolyl Hydroxylase (OGFOD1) Involved in Ribosomal Decoding” (Chemistry (Weinheim an Der Bergstrasse, Germany), 2019).
Where “and” joins values, the source holds several entries; their conditions need not be identical. Identical values can stand only once.

Tests used:
Type in all cases: biochemical
JARID1B = JARID1B (Homo sapiens, UniProt Q9UGL1); assay: JARID1B AlphaScreen-based assay
Procedure: (§1) reactions were quenched after 4 min. KDM4A inhibition was tested as described previously using a formaldehyde dehydrogenase (FDH) assay.[9] JARID1B and JARID1C inhibition was tested as described previously using reported AlphaScreen-based assays.[10] MINA531-464 and NO66116-641 were cloned into pFB-LIC-Bse, and the N-terminal His-tagged proteins were produced in Sf9 insect cells. The MINA53 peptide substrate Rpl27a […]
(§2) (Gly31 – Pro49 […]) and the NO66 peptide substrate Rpl8
(§3) (Asn205 – Thr224 […]) were synthesized by Peptide Protein
(§4) Research Ltd (Fareham, Hampshire, UK) to >95% purity. IC50 determinations were performed in 384-well polypropylene plates (Greiner Bio One, Cat Number 781096), and compound dispenses were performed using an ECHO 550 acoustic dispenser (Labcyte, Sunnyvale, CA).
(§5) NO66 (diluted to 375 nM in 50 mM MES pH 7.0, 150 mM NaCl) and MINA53 (diluted to 187.5 nM in 50 mM HEPES pH 7.5, 50 mM NaCl) were dispensed (40 µL) into 384-well compound plates using a multidrop combi reagent dispenser (Thermo Scientific, Code 5840300) with a small tube plastic tip dispensing cassette (Thermo Scientific, Code 24073290).
(§6) NO66 and MINA53 were pre-incubated with compound for 15 minutes, and the enzyme reaction initiated by dispensing 10 µL of substrate solution [250 µM (NH4)2Fe(SO4)2, 500 µM sodium ascorbate, 25 µM 2OG, 25 µM peptide] in optimized enzyme buffer. […]

KDM4A = biological target: T1, KDM4A (Homo sapiens, UniProt O75164); assay: KDM4A formaldehyde dehydrogenase (FDH) assay
T1 sequence (O75164 1-1064): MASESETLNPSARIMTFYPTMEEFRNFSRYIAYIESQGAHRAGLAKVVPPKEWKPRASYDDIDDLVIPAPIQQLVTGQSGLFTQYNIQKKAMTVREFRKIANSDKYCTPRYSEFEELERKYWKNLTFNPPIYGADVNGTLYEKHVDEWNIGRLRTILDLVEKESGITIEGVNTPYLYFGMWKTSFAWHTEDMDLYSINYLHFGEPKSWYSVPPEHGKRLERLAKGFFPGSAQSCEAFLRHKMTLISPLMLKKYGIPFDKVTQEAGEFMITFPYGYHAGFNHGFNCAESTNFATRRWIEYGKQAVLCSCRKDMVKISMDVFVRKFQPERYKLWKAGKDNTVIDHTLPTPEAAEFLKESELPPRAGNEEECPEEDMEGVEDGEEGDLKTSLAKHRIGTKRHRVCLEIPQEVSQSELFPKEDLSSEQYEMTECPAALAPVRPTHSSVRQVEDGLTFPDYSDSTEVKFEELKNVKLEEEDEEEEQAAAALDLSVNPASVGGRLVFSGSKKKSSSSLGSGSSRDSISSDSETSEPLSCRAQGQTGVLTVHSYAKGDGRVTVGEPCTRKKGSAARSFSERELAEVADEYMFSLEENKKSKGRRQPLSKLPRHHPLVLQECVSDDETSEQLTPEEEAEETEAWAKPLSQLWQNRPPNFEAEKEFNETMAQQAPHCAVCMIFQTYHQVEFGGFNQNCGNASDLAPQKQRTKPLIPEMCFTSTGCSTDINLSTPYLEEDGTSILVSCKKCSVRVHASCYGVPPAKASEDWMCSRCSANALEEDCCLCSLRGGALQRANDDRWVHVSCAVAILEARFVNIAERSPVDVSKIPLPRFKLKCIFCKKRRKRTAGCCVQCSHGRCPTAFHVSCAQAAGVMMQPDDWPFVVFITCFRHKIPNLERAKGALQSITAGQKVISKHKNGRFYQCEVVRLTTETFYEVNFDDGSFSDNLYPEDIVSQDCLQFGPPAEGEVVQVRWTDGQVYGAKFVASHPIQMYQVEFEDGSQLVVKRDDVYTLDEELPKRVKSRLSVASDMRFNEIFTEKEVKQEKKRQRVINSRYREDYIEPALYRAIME
Procedure: as §1, §2, §3, §4, §5, §6

OGFOD1 = biological target: T2, OGFOD1 (Homo sapiens, UniProt Q8N543); assay: OGFOD1 inhibition assay: hydroxylation of RPS23 51-70 peptide by MALDI-TOF MS; settings: IC50 against OGFOD1, 1 μM OGFOD1; minimum measurable IC50 0.5 μM; values for 24 and 25 regarded as preliminary
T2 sequence (Q8N543 1-542): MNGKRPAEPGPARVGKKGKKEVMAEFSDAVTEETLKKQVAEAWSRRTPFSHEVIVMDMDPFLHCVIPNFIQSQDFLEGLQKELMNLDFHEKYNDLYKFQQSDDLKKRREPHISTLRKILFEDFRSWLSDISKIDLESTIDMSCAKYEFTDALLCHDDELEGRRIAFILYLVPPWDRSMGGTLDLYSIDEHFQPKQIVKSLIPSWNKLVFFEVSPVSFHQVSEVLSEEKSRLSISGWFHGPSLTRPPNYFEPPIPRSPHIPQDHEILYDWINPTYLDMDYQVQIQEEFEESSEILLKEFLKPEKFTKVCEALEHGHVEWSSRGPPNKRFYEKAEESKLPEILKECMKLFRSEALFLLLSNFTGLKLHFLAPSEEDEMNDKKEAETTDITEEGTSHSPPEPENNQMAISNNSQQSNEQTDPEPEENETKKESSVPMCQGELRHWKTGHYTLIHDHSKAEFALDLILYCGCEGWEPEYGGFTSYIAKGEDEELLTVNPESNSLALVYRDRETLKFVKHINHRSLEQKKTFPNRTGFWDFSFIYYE
Procedure: OGFOD1 inhibition assays were performed by determining the extent of hydroxylation of a 20mer fragment of human ribosomal protein S23 (RPS23) containing residues 51-70 (H2N- […]
-CONH2) by matrix-assisted laser desorption/ionization time-of-flight mass spectrometry (MALDI-TOF MS) using a Waters Micromass MALDI micro MX mass spectrometer and MassLynx 4.1, as previously described.[7,8] The optimized hydroxylation assay involved incubation of OGFOD1 (1 µM) with inhibitor (1 % v/v in DMSO) in the presence of (NH4)2Fe(SO4)2 (50 µM), the disodium salt of 2-oxoglutarate (25 µM), […]
OGFOD1 was pre-incubated with inhibitor for 5 min before initiation of the reaction via the addition of the other reagents. Reactions were quenched with formic acid (1 % v/v) after 15 min. Samples were prepared for MALDI using α-cyano-4-hydrocinnamic acid (CHCA; prepared in 50 % acetonitrile) as a matrix. Dose-responses were assessed in 8-point triplicates, normalized to a no enzyme negative control and a no inhibitor positive control. Non-linear regression analysis was performed using Prism (GraphPad). […]

JARID1B, sequence (Q9UGL1 whole entry): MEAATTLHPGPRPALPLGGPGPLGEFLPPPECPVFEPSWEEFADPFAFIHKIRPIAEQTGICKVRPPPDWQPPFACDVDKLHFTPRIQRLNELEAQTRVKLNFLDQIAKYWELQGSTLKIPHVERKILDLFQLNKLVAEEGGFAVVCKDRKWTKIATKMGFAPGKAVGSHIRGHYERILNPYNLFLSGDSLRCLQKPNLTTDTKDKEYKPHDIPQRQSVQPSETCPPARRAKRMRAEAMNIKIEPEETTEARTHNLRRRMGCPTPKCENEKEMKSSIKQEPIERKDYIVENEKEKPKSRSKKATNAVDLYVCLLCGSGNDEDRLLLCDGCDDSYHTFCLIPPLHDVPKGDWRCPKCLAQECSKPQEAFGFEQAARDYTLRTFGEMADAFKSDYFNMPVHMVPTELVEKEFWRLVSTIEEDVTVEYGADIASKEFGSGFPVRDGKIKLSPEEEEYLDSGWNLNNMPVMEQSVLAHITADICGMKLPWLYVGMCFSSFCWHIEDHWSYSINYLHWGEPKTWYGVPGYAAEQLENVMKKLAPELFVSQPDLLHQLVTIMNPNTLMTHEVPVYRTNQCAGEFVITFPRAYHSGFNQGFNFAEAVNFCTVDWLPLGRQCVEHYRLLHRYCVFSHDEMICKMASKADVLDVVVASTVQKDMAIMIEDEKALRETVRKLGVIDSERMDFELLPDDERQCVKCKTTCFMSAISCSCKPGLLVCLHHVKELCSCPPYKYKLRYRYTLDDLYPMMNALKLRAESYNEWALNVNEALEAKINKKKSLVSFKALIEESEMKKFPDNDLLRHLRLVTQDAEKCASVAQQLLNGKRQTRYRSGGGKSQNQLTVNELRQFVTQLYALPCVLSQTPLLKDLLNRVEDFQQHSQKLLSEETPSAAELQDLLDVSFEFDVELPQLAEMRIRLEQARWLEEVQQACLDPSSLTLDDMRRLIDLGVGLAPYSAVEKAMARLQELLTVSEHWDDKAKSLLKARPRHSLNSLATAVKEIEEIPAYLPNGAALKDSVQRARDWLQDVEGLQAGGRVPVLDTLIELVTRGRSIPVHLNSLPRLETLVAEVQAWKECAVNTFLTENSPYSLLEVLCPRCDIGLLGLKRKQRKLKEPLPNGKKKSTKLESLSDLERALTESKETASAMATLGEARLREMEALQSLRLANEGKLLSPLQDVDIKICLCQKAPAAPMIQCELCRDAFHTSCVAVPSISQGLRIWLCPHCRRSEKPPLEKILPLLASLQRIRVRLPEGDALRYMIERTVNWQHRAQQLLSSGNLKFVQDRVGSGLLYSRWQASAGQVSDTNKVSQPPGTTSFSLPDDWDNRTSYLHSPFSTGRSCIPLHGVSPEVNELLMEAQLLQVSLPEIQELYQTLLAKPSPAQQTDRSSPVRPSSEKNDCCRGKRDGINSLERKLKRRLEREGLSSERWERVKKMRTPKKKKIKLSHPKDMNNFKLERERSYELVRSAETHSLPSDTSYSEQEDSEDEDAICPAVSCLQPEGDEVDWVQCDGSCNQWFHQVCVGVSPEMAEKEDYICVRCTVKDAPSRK

Q: Cn1c(O)c(C(=O)CCc2cccs2)c(=O)n(C)c1=O [compound 42] was tested. Which IC50 (JARID1B) did it give?
A: > 100 µM

Q: What about the IC50 (KDM4A) of the same molecule?
A: > 100 µM

Q: What about the IC50 (OGFOD1) of the same molecule?
A: 690 nM and < 1000 nM

Q: Cn1c(O)c(C(=O)CCc2ccccc2)c(=O)n(C)c1=O [compound 26] was tested. Which IC50 (JARID1B) did it give?
A: > 100 µM

Q: And the IC50 (KDM4A)?
A: > 100 µM

Q: What about the IC50 (OGFOD1) of the same molecule?
A: 700 nM and 730 nM and < 1000 nM
